Experimental data taken from patent US20240398773A1, “COMPOSITIONS COMPRISING OTESECONAZOLE” (Mycovia Pharmaceuticals, Inc., priority 2021, published 2024).
Read-outs that look alike come from different tables or passages of the source.

Tests used:
[1] = tested on: recurrent VVC episode; test: Study CL-006 culture-verified recurrent VVC episodes; assay type: in vivo, human; conditions: 150 mg, 3 months dose group (150 mg QD 7 days, then 150 mg QW 11 weeks)
Excerpt: The dosing regimen yielded oteseconazole plasma concentrations that provided marked efficacy across all dose groups, with no differences in the extent of efficacy noted.

[2] = tested on: Tinea Pedis; test: Study CL-003 therapeutic cure of tinea pedis; assay type: in vivo, human
Excerpt: Even though the target concentrations were not reached for either dose group in this study, oteseconazole was efficacious in treating TP.

[3] = tested on: acute VVC episodes; test: Study CL-012 culture-verified acute VVC episodes; assay type: in vivo, human; conditions: 150 mg QD for 7 days, then 150 mg QW for 11 weeks
Protocol: The average percentage of subjects with one or more culture-verified acute VVC episodes in the 150 mg oteseconazole group was 3.9% versus 39.4% in the placebo group.

[4] = Study CL-005 in subjects with onychomycosis, plasma PK; assay type: in vivo; conditions: human; for AUC(0-t): read-out: AUC0-8; for concentration at 12 weeks: after 12 weeks; for concentration at 12 weeks / concentration at 24 weeks: read-out: plasma exposure; for concentration at 24 weeks: after 24 weeks
Protocol: Within each treatment group, oteseconazole plasma exposures increased throughout the dosing regimen from Day 1 to Week 12 or 24. […] Mean Cmax and AUC0-8 values after the Day 14 dose (completion of the loading dose phase of the study) were similar for the 300 mg 12-week and 300 mg 24-week treatment groups, and for the 600 mg 12-week and 600 mg 24-week treatment groups, as expected.

[5] = Study CL-007 DDI and PKE cohorts, plasma PK; assay type: in vivo; parameters: AUC(0-t) / AUC(0-inf): concentration or dose not given beside the values; conditions: human; for AUC(0-t): read-out: AUC0-24
Protocol: The median Tmax was 4.0 hours on Day 3 and 6.0 hours on Day 16. […] The increase in oteseconazole concentrations after 14 days of daily dosing was expected based on the long half-life of oteseconazole and are a consequence of accumulation and not of concomitant administration of midazolam.
The geometric mean AUC0-24 was 26120 h*ng/ml and the geometric mean AUC0-∞ was 57290 h*ng/mL. These values were consistent with the oteseconazole plasma PK parameters calculated on Day 3 in the DDI cohort.

[6] = 300 mg, Day 14, Low Dose (300 mg), 12 weeks
[7] = 300 mg, Day 14, Low Dose (300 mg), 24 weeks
[8] = 600 mg, Day 14, High Dose (600 mg), 12 weeks
[9] = 600 mg, Day 14, High Dose (600 mg), 24 weeks
[10] = DDI Cohort, Day 3, geometric mean
[11] = DDI Cohort, Day 16, geometric mean
[12] = PKE Cohort, Day 1, geometric mean

SMILES: O[C@@](Cn1cnnn1)(c1ccc(F)cc1F)C(F)(F)c1ccc(-c2ccc(OCC(F)(F)F)cc2)cn1 [Oteseconazole, oteseconazole]
- subjects with a culture-verified recurrent VVC episode by Week 48 [1]: 4.8%
- therapeutic cure ([2]; high dose group): 21.4%
- therapeutic cure ([2]; low dose group): 16.7%
- therapeutic cure ([2]; mid dose group): 8.3%
- average percentage of subjects with one or more culture-verified acute VVC episodes [3]: 3.9%
- Cmax [4, 6]: 5120 ng/mL
- AUC(0-t) [4, 6]: 36.7 µg·h/mL
- Cmax [4, 7]: 5510 ng/mL
- AUC(0-t) [4, 7]: 40.1 µg·h/mL
- Cmax [4, 8]: 8290 ng/mL
- AUC(0-t) [4, 8]: 59.7 µg·h/mL
- Cmax [4, 9]: 8390 ng/mL
- AUC(0-t) [4, 9]: 61.6 µg·h/mL
- Tmax ([4]; Day 14, High Dose (600 mg), 12 weeks): 5 h
- Tmax ([4]; Day 14, Low Dose (300 mg), 12 weeks): 5 h
- concentration at 12 weeks ([4]; 300 mg 12-week treatment group): 6750 ng/mL
- concentration at 12 weeks ([4]; 600 mg 12-week treatment group): 12300 ng/mL
- concentration at 24 weeks ([4]; 300 mg 24-week treatment group): 9230 ng/mL
- concentration at 24 weeks ([4]; 600 mg 24-week treatment group): 15600 ng/mL
- AUC(0-inf) [5, 10]: 49.4 µg·h/mL
- Cmax [5, 10]: 1910 ng/mL
- AUC(0-t) [5, 10]: 24.6 µg·h/mL
- Tmax ([5]; DDI Cohort, Day 3, median): 4 h
- AUC(0-inf) [5, 11]: 4880 µg·h/mL
- Cmax [5, 11]: 11600 ng/mL
- AUC(0-t) [5, 11]: 243 µg·h/mL
- Tmax ([5]; DDI Cohort, Day 16, median): 6 h
- AUC(0-inf) [5, 12]: 57.3 µg·h/mL
- Cmax [5, 12]: 1900 ng/mL
- AUC(0-t) [5, 12]: 26.1 µg·h/mL
- Tmax ([5]; PKE Cohort, Day 1, median): 6 h
